# Results published in patent publication US20080188481A1 (priority 2002, published 2008).
# Test system: HIV-1 single-round infectious reporter virus
# Assay: Single-round infectious HIV-1 luciferase reporter virus infection of HeLa CD4 cells (antiviral EC50)
# Format: cell-based
# Details: Human immunodeficiency virus 1, HeLa, 72 h, read-out: EC50 Group from Table 1
# Outline: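 HeLa CD4 cells infected with env-pseudotyped, luciferase-reporter single-round HIV-1 (MOI ~0.01) in presence of compound (final ≤10 μM), harvested 72 h at 37 °C. Luciferase luminescence expressed as percent inhibition versus no-compound control; EC50 from 10-concentration four-parameter logistic fit.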
row,Structure (SMILES),EC50 [nM]
1,"COc1cnc(-n2cnc(C)n2)c2[nH]cc(C(=O)C(=O)N3CCC(=C(c4ccccc4)c4nnco4)CC3)c12 [Example 131, 1-[4-(1-Phenyl-1-(1,3,4-oxadiazol-2-yl)-methylene)-piperidin-1-yl]-2-[4-methoxy-7-(3-methyl-1,2,4-triazol-1-yl)-6-azaindol-3-y]-ethane-1,2-dione]",< 1000
2,"COc1cnc(-n2ccnn2)c2[nH]cc(C(=O)C(=O)N3CCC(=C(c4ccccc4)c4nnco4)CC3)c12 [Example 132, 1-[4-(1-Phenyl-1-(1,3,4-oxadiazol-2-yl)-methylene)-piperidin-1-yl]-2-[4-methoxy-7-(1,2,3-triazol-1-yl)-6-azaindol-3-yl]-ethane-1,2-dione]",< 1000
3,"COc1cnc(-n2cnc(C)n2)c2[nH]cc(C(=O)C(=O)N3CCC(=C(c4ccccc4)c4nnc(C5CCC5)o4)CC3)c12 [Example 133, 1-[4-(1-Phenyl-1-(5-cyclobutyl-1,3,4-oxadiazol-2-yl)-methylene)-piperidin-1-yl]-2-[4-methoxy-7-(3-methyl-1,2,4-triazol-1-yl)-6-azaindol-3-yl]-ethane-1,2-dione]",< 1000
4,"COc1cnc(-n2cnc(C)n2)c2[nH]cc(C(=O)C(=O)N3CCC(=C(c4ccccc4)c4nnc(C(C)(C)C)o4)CC3)c12 [Example 134, 1-[4-(1-Phenyl-1-(5-tert-butyl-1,3,4-oxadiazol-2-yl)-methylene)-piperidin-1-yl]-2-[4-methoxy-7-(3-methyl-1,2,4-triazol-1-yl)-6-azaindol-3-yl]-ethane-1,2-dione]",< 1000
5,"COc1cnc(-n2cnc(C)n2)c2[nH]cc(C(=O)C(=O)N3CCC(=C(c4ccccc4)c4nnc(-c5ccccc5)o4)CC3)c12 [Example 135, 1-[4-(1-Phenyl-1-(5-phenyl-1,3,4-oxadiazol-2-yl)-methylene)-piperidin-1-yl]-2-[4-methoxy-7-(3-methyl-1,2,4-triazol-1-yl)-6-azaindol-3-yl]-ethane-1,2-dione]",> 500
6,"COc1cnc(-n2cnc(C)n2)c2[nH]cc(C(=O)C(=O)N3CCC(=C(c4ccccc4)c4cn(C)cn4)CC3)c12 [Example 136, 1-[4-(1-Phenyl-1-(1-methylimidazol-4-yl)-methylene)-piperidin-1-yl]-2-(4-methoxy-7-(3-methyl-1,2,4-triazol-1-yl)-6-azaindol-3-yl)-ethane-1,2-dione]",< 1000
7,"COc1cnc(-n2cc(C)nn2)c2[nH]cc(C(=O)C(=O)N3CCC(=C(c4ccccc4)c4cc(C)n[nH]4)CC3)c12 [Example 137, 1-[4-(1-Phenyl-1-(3-methylpyrazol-5-yl)-methylene)-piperidin-1-yl]-2-(4-methoxy-7-(4-methyl-1,2,3-triazol-1-yl)-6-azaindol-3-yl)-ethane-1,2-dione]",< 1000
8,"COc1cnc(-n2cc(C)nn2)c2[nH]cc(C(=O)C(=O)N3CCC(=C(c4ccccc4)c4nnc(C)o4)CC3)c12 [Example 138, 1-[4-(1-Phenyl-1-(5-methyl-1,3,4-oxadiazol-2-yl)-methylene)-piperidin-1-yl]-2-(4-methoxy-7-(4-methyl-1,2,3-triazol-1-yl)-6-azaindol-3-yl)-ethane-1,2-dione]",< 1000
9,"COc1cnc(-c2nnc(C)[nH]2)c2[nH]cc(C(=O)C(=O)N3CCC(=C(c4ccccc4)c4nnc(C)o4)CC3)c12 [Example 139, 1-[4-(1-Phenyl-1-(5-methyl-1,3,4-oxadiazol-2-yl)-methylene)-piperidin-1-yl]-2-(4-methoxy-7-(5-methyl-1,3,4-triazol-2-yl)-6-azaindol-3-yl)-ethane-1,2-dione]",< 1000
10,"COc1cnc(-c2cc(C)n[nH]2)c2[nH]cc(C(=O)C(=O)N3CCC(=C(c4ccccc4)c4nnc(C)o4)CC3)c12 [Example 140, 1-[4-(1-Phenyl-1-(5-methyl-1,3,4-oxadiazol-2-yl)-methylene)-piperidin-1-yl]-2-(4-methoxy-7-(5-methylpyrazole-3-yl)-6-azaindol-3-yl)-ethane-1,2-dione]",< 1000
11,"COc1cnc(-n2cnc(C)n2)c2[nH]cc(C(=O)C(=O)N3CCC(=C(c4ccccc4)c4cnn(C)c4)CC3)c12 [Example 141, 1-[4-(1-Phenyl-1-(1-methylpyrazol-4-yl)-methylene)-piperidin-1-yl]-2-(4-methoxy-7-(3-methyl-1,2,4-triazol-1-yl)-6-azaindol-3-yl)-ethane-1,2-dione]",< 1000
12,"COc1cnc(-n2ccnn2)c2[nH]cc(C(=O)C(=O)N3CCC(=C(c4ccccc4)c4cnn(C)c4)CC3)c12 [Example 142, 1-[4-(1-Phenyl-1-(1-methylpyrazol-4-yl)-methylene)-piperidin-1-yl]-2-(4-methoxy-7-(1,2,3-triazol-1-yl)-6-azaindol-3-yl)-ethane-1,2-dione]",< 1000
13,"COc1cnc(-n2cnc(C)n2)c2[nH]cc(C(=O)C(=O)N3CCC(=C(c4ccccc4)c4cnn(Cc5ccccc5)c4)CC3)c12 [Example 143, 1-[4-(1-Phenyl-1-(1-benzylpyrazol-4-yl)-methylene)-piperidin-1-yl]-2-(4-methoxy-7-(3-methyl-1,2,4-triazol-1-yl)-6-azaindol-3-yl)-ethane-1,2-dione]",< 1000
14,"COc1cnc(-n2ccnn2)c2[nH]cc(C(=O)C(=O)N3CCC(=C(c4ccccc4)c4cnn(Cc5ccccc5)c4)CC3)c12 [Example 144, 1-[4-(1-Phenyl-1-(1-benzylpyrazol-4-yl)-methylene)-piperidin-1-yl]-2-(4-methoxy-7-(1,2,3-triazol-1-yl)-6-azaindol-3-yl)-ethane-1,2-dione]",< 1000
